The text below walks through data of ChEMBL document CHEMBL2046426, “Neo-clerodane diterpenes from Salvia herbacea” (J Nat Prod, 2012).

In test [1] the test system is Mus musculus. The test can be described thus: Antiinflammatory activity in CD-1 mouse assessed as inhibition of TPA-induced ear edema applied topically 10 mins before compound challenge measured after 4 hrs. The class given is functional, organism-based. The following applies: CD-1, Ear.
The subject of the next test is U-251. Description: Cytotoxicity against human U251 cells after 48 hrs by SRB assay. Type of test: functional, cell-based. The following applies: U-251, 48 h. A general note: The SRB assay estimates cell density from bound dye.
For a further test, the system named is SK-LU-1. Description: Cytotoxicity against human SKLU1 cells after 48 hrs by SRB assay. The class given is functional, cell-based. As to conditions: SK-LU-1, 48 h.
The subject of test [2] is Mus musculus. The test can be described thus: Antiinflammatory activity in CD-1 mouse assessed as inhibition of TPA-induced ear edema at 0.1 to 1.0 uM applied topically 10 mins before compound challenge measured after 4 hrs. The class given is functional, organism-based.

Each structure is given as a SMILES string. Active and inactive are the calls of the source. The calls are words filed in the database; no cut-off is given here.

With `C[C@]12C[C@H](c3ccoc3)OC(=O)[C@@]1(O)CC[C@@]13COC(=O)C1=CC[C@H]1O[C@]132` [TEHUANINE G], the IC50 with Mus musculus [1] amounted to 0.24 µmol/ear.
With `C[C@]12C[C@H](c3ccoc3)OC(=O)[C@@H]1[C@H](O)C[C@@]13COC(=O)C1=CC[C@H]1O[C@]132` [TEHUANINE F], the figures for the IC50 in the test on U-251 and in the test with SK-LU-1 were 41.9 µM and 38.9 µM, respectively.
As to `COc1ccc2c(c1)c(CC(=O)O)c(C)n2C(=O)c1ccc(Cl)cc1`, in the test with Mus musculus [2], the inhibition entry was “Active”.
